Source: patent US20250248979A1, “NOVEL GPX4 INHIBITORS AND USES THEREOF” (THE TRUSTEES OF COLUMBIA UNIVERSITY IN THE CITY OF NEW YORK, priority 2022, published 2025)

Biological target: T1, GPX4 (Homo sapiens, UniProt P36969)
T1 sequence (P36969 1-170 isoform P36969-2): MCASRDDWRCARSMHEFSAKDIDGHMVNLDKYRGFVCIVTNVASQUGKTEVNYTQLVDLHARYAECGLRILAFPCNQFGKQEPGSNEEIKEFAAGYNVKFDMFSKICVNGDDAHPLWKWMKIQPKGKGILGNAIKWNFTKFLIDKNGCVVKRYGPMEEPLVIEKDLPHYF
Assay: GPX4 activity assay in cell lysates (NADPH-coupled)
Type: biochemical
Set-up: endogenous in cells; host or cells: A-673 cell lysate
Details: 200 μM
Protocol: Determination of GPX4 activity in cell lysates was performed as previously described by Roveri et al. 1994 with minor modifications. Briefly, the assay measures the consumption of NADPH, which has a characteristic absorbance at 340 nm, over time as a proxy for GPX4 activity. The rationale for this is that as GPX4 reduces phospholipid hydroperoxides, it oxidizes glutathione, which is then regenerated by glutathione reductase at the expense of NADPH. NADPH is added to the assay in excess such that the reduction of oxidized glutathione is not the rate-limiting reaction in the assay. Thus, the resulting reduction in NADPH absorbance over time reflects GPX4 activity.
The GPX4-specific substrate phosphatidylcholine hydroperoxide (PCOOH) was prepared by enzymatic hydroperoxidation. Specifically, 0.3 mM phosphatidylcholines (Sigma-Aldrich) were incubated with 0.7 mg soybean lipoxidase type IV (Sigma-Aldrich) in 22 mL of 0.2 M Tris-HCl pH 8.8 with 3 mM sodium deoxycholate at room temperature under continuous stirring for 30 minutes. A Sep-Pak C18 cartridge (Waters-Millipore) was pre-washed with methanol and equilibrated with water, then the substrate mixture was loaded. The column was washed with 10 volumes of water and PCOOH was eluted with 2 mL of methanol.
To prepare the cell lysate containing native GPX4, A-673 cells were cultured with 20 nM sodium selenite to confluency over two days then harvested and washed with cold PBS. Cells were then resuspended at 10 million cells per 1 mL LCW lysis buffer (0.5% peroxide-free Triton X-100, 0.5% sodium deoxycholate salt, 150 mM NaCl, 20 mM Tris-HCl pH 7.5, 10 mM EDTA, 30 mM sodium pyrophosphate, and complete protease inhibitor cocktail), vortexed for 30 seconds, and incubated on ice for 15 minutes. After lysis, the lysates were centrifuged at 14,000×g and 4° C. for 15 minutes. The supernatants were transferred to new pre-chilled tube and the debris pellet was discarded. The protein concentration in the lysate was determined for normalization using the BCA Protein Assay Kit (Pierce).
To measure GPX4 activity, 50 μL of cell lysate was combined with 200 μL activity assay buffer (0.1% Triton X-100, 100 mM Tris-HCl pH 8.0, 10 mM sodium azide, 5 mM EDTA, 0.6 IU/mL glutathione reductase, 0.5 mM NADPH and 3 mM GSH) and compounds of interest in a clear 96-well plate and incubated at 37° C. for 45 minutes. Compounds were dissolved in DMSO. All conditions were tested in triplicate. PCOOH substrate was added to the mixture to initiate GPX4 activity just before reading the plate. The absorbance of NADPH at 340 nm was monitored kinetically over time for 25 minutes. Buffer-only controls and controls without substrate containing only the methanol vehicle were performed to assess background and baseline signal. GPX4 activity was calculated as previously reported by Stolwijk et al. 2020 and results were analyzed in GraphPad Prism 9.

GPX4 inhibition [%] | SMILES
76 | CC(C)(COC(=O)CCl)NC(=O)c1c[nH]c2ccccc12 [QW-280]

Same assay, conditions: 200 μM; generation 1; mean ± s.d., n = 3

SMILES | GPX4% inhibition at 200 (μM) [%]
COc1cccc2[nH]c(C(=O)NC(C)(C)COC(=O)CBr)cc12 [QW-159] | 56.0 ± 7.3
Cc1ccc2[nH]c(C(=O)NC(C)(C)COC(=O)CBr)cc2c1 [QW-161] | 65.0 ± 7.2
COc1ccc2cc(C(=O)NC(C)(C)COC(=O)CBr)[nH]c2c1 [QW-162] | 103.8 ± 7.6
C=CC(=O)OCC(C)(C)NC(=O)c1cc2cc(Cl)ccc2[nH]1 [QW-167] | 7.8 ± 12.8
C=CC(=O)OCC(C)(C)NC(=O)c1cc2c(OC)cccc2[nH]1 [QW-168] | −8.8 ± 10.8
C=CC(=O)OCC(C)(C)NC(=O)c1cc2ccc(Br)cc2[nH]1 [QW-169] | 14.0 ± 8.6
C=CC(=O)OCC(C)(C)NC(=O)c1cc2cc(C)ccc2[nH]1 [QW-170] | 5.3 ± 10.0
C=CC(=O)OCC(C)(C)NC(=O)c1cc2cc([N+](=O)[O-])ccc2[nH]1 [QW-172] | 16.1 ± 16.0
CC(C)(COC(=O)CBr)NC(=O)c1cccs1 [QW-260] | 41.1 ± 4.6
C=CC(=O)OCC(C)(C)NC(=O)c1cccs1 [QW-261] | 23.2 ± 17.0
Cc1onc(C(=O)OCC(C)(C)NC(=O)c2cccs2)c1[N+](=O)[O-] [QW-262] | −0.6 ± 7.8
C=CC(=O)OCC(C)(C)NC(=O)c1cc2ccccc2s1 [QW-276] | 5.9 ± 4.4
Cc1onc(C(=O)OCC(C)(C)NC(=O)c2cc3ccccc3s2)c1[N+](=O)[O-] [QW-277] | 12.4 ± 20.1
C=CC(=O)OCC(C)(C)NC(=O)c1c[nH]c2ccccc12 [QW-282] | 12.7 ± 4.7
Cc1onc(C(=O)OCC(C)(C)NC(=O)c2c[nH]c3ccccc23)c1[N+](=O)[O-] [QW-283] | −6.6 ± 8.5
COc1ccc2cc(C(=O)NC(C)(C)CCOC(=O)CBr)[nH]c2c1 [QW-285] | 77.9 ± 7.6
C=CC(=O)OCCC(C)(C)NC(=O)c1cc2ccc(OC)cc2[nH]1 [QW-286] | 11.5 ± 7.1
CC(C)(COC(=O)CBr)NC(=O)c1ccc[nH]1 [QW-291] | 20.0 ± 4.0
C=CC(=O)OCC(C)(C)NC(=O)c1ccc[nH]1 [QW-292] | 7.9 ± 5.3
Cc1onc(C(=O)OCC(C)(C)NC(=O)c2ccc[nH]2)c1[N+](=O)[O-] [QW-293] | −13.1 ± 14.6
C=CC(=O)OCCNC(=O)c1cc2ccc(OC)cc2[nH]1 [QW-301] | 3.3 ± 1.2
O=C(CCl)OCCCNC(=O)c1cc2cc(Cl)ccc2[nH]1 [QW-304] | 78.3 ± 4.3
C=CC(=O)OCCCNC(=O)c1cc2cc(Cl)ccc2[nH]1 [QW-306] | 6.2 ± 7.5
COc1ccc2cc(C(=O)NC(C)(C)COC(=O)CCl)n(C)c2c1 [QW-320] | 84.3 ± 9.3
Cn1cc(C(=O)NC(C)(C)COC(=O)CCl)c2ccc(Br)cc21 [QW-325] | 76.6 ± 3.9
Cn1cc(C(=O)NC(C)(C)COC(=O)C#C[Si](C)(C)C)c2ccc(Br)cc21 [QW-337] | 67.2 ± 3.4

The remaining lines, values ahead:

GPX4% inhibition at 200 (μM) [%] | SMILES
33.3 ± 6.0 | CC(C)(COC(=O)CBr)NC(=O)c1cc2ccccc2[nH]1 [QW-160]
73.9 ± 5.3 | CC(C)(COC(=O)CBr)NC(=O)c1cc2cc(Cl)ccc2[nH]1 [QW-165]
1.8 ± 8.0 | C=CC(=O)OCC(C)(C)NC(=O)c1cc2ccccc2[nH]1 [QW-166]
27.7 ± 26.1 | CC(C)(COC(=O)CCl)NC(=O)c1cccs1 [QW-259]
61.2 ± 11.3 | CC(C)(COC(=O)CCl)NC(=O)Cc1cc2ccccc2[nH]1 [QW-265]
48.8 ± 3.3 | CC(C)(COC(=O)CBr)NC(=O)Cc1cc2ccccc2[nH]1 [QW-266]
14.7 ± 5.7 | C=CC(=O)OCC(C)(C)NC(=O)Cc1cc2ccccc2[nH]1 [QW-267]
−8.0 ± 15.8 | Cc1onc(C(=O)OCC(C)(C)NC(=O)Cc2cc3ccccc3[nH]2)c1[N+](=O)[O-] [QW-268]
65.5 ± 1.6 | CC(C)(COC(=O)CCl)NC(=O)CCc1cc2ccccc2[nH]1 [QW-270]
40.2 ± 5.2 | CC(C)(COC(=O)CBr)NC(=O)CCc1cc2ccccc2[nH]1 [QW-271]
27.5 ± 4.4 | CC(C)(COC(=O)CCl)NC(=O)c1cc2ccccc2s1 [QW-274]
63.1 ± 3.6 | CC(C)(COC(=O)CBr)NC(=O)c1cc2ccccc2s1 [QW-275]
75.9 ± 15.5 | CC(C)(COC(=O)CCl)NC(=O)c1c[nH]c2ccccc12 [QW-280]
58.7 ± 11.5 | CC(C)(COC(=O)CBr)NC(=O)c1c[nH]c2ccccc12 [QW-281]
71.0 ± 22.2 | COc1ccc2cc(C(=O)NC(C)(C)CCOC(=O)CCl)[nH]c2c1 [QW-284]
20.6 ± 9.0 | CC(C)(COC(=O)CCl)NC(=O)c1ccc[nH]1 [QW-290]
68.9 ± 1.8 | COc1ccc2cc(C(=O)NCC(C)(C)COC(=O)CCl)[nH]c2c1 [QW-302]
90.3 ± 4.8 | Cn1c(C(=O)NC(C)(C)COC(=O)CCl)cc2ccc(Br)cc21 [QW-321]
16.0 ± 4.9 | COc1ccc2[nH]cc(C(=O)NC(C)(C)COC(=O)CCl)c2c1 [QW-322]
42.6 ± 7.0 | CC(C)(COC(=O)CCl)NC(=O)c1cc2cc(F)ccc2[nH]1 [QW-338]
43.4 ± 11.5 | CC(C)(COC(=O)CCl)NC(=O)c1cc2cc(F)c(F)cc2[nH]1 [QW-339]
69.6 ± 6.2 | CC(C)(COC(=O)CCl)NC(=O)c1cc2ccc(F)cc2[nH]1 [QW-353]

Same assay, conditions: 200 μM; generation 2

SMILES | GPX4% inhibition at 200 (μM) [%]
CC(C)(COC(=O)CCl)NC(=O)c1n[nH]c2ccccc12 [QW-296] | 83.1 ± 21.9
C=CC(=O)OCC(C)(C)NC(=O)c1n[nH]c2ccccc12 [QW-298] | 7.9 ± 8.2
Cc1onc(C(=O)OCC(C)(C)NC(=O)c2n[nH]c3ccccc23)c1[N+](=O)[O-] [QW-299] | 6.3 ± 4.7
Cn1nc(C(=O)N2CCN(C(=O)CCl)CC2)c2ccc(Br)cc21 [QW-330] | 33.2 ± 6.8
Cc1onc(C(=O)OCC(C)(C)NC(=O)c2nn(C)c3ccccc23)c1[N+](=O)[O-] [QW-363] | −15.4 ± 8.4
C=CC(=O)OCC(C)(C)NC(=O)c1nn(C)c2ccccc12 [QW-366] | −7.3 ± 0.5

Next, values leading:

GPX4% inhibition at 200 (μM) [%] | SMILES
73.1 ± 14.6 | CC(C)(COC(=O)CBr)NC(=O)c1n[nH]c2ccccc12 [QW-297]
84.3 ± 8.9 | COc1ccc2c(C(=O)NC(C)(C)COC(=O)CCl)n[nH]c2c1 [QW-326]

Same assay, conditions: 200 μM; mean ± s.d., n = 3

GPX4% inhibition at 200 (μM) [%] | SMILES
18.7 ± 15.8 | O=C(c1cc2cc(Cl)ccc2[nH]1)n1ccnc1 [QW-002]
−2.6 ± 14.6 | O=C(c1cc2cc([N+](=O)[O-])ccc2[nH]1)n1ccnc1 [QW-049]
32.7 ± 18.4 | Cc1ccc2[nH]c(C(=O)n3ccnc3)cc2c1 [QW-056]
37.8 ± 0.9 | O=C(c1c[nH]c2ccccc12)n1ccnc1 [QW-058]
31.9 ± 16.6 | O=C(c1cc2ccccc2[nH]1)n1ccnc1 [QW-064]
